Molecular target: T1, Renin (Homo sapiens, UniProt P00797)
T1 sequence (P00797 whole entry): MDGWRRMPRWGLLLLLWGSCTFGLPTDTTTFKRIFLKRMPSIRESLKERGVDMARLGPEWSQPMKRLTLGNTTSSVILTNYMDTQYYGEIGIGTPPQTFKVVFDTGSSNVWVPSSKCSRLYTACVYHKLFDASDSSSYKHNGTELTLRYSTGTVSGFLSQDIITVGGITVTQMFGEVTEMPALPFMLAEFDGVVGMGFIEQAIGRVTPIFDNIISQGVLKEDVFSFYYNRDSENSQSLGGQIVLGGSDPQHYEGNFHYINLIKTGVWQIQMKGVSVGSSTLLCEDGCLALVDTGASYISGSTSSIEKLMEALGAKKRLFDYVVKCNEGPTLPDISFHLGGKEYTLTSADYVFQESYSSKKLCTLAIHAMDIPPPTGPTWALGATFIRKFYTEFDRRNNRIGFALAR
Test: In Vitro Renin IC50 Determinations (Tandem GFP FRET Assay)
Conditions: pH 7.4; 22 °C
From the text: The renin assay utilized a tandem Green Flourescent Protein (tGFP) substrate that was hydrolyzed by human rennin.

SMILES	IC50
CCc1nc(N)nc(NCCc2ccccc2NC(=O)c2ccc(N)c(OC)c2)c1-c1ccc2c(c1)N(CCCOC)C(=O)C(C)(C)O2 [4-amino-N-{2-[2-({2-amino-6-ethyl-5-[4-(3-methoxypropyl)-2,2-dimethyl-3-oxo-3,4-dihydro-2H-1,4-benzoxazin-6-yl]pyrimidin-4-yl}amino)ethyl]phenyl}-3-methoxybenzamide]	336 nM
CCc1nc(N)nc(NCCNS(=O)(=O)c2ccc3ccccc3c2)c1-c1ccc2c(c1)N(CCCOC)C(=O)C(C)(C)O2 [N-[2-({2-amino-6-ethyl-5-[4-(3-methoxypropyl)-2,2-dimethyl-3-oxo-3,4-dihydro-2H-1,4-benzoxazin-6-yl]pyrimidin-4-yl}amino)ethyl]naphthalene-2-sulfonamide]	27 nM
CCc1nc(N)nc(N)c1-c1ccc2c(c1)N(CCCOC)CCC2 [6-ethyl-5-[1-(3-methoxypropyl)-1,2,3,4-tetrahydroquinolin-7-yl]pyrimidine-2,4-diamine]	691 nM
CCc1nc(N)nc(N)c1-c1ccc2c(c1)N(CCCOC)C(c1ccccc1)CC2 (stereo unspecified) [6-ethyl-5-[1-(3-methoxypropyl)-2-phenyl-1,2,3,4-tetrahydroquinolin-7-yl]pyrimidine-2,4-diamine]	58 nM
CCc1nc(N)nc(N)c1-c1ccc(NCc2cc(F)cc(F)c2)cc1 [5-(4-{[(3,5-difluorophenyl)methyl]amino}phenyl)-6-ethylpyrimidine-2,4-diamine]	6560 nM
CCc1nc(N)nc(N)c1-c1ccc2c3ccccc3n(CCCOC)c2c1 [6-ethyl-5-[9-(3-methoxypropyl)-9H-carbazol-2-yl]pyrimidine-2,4-diamine]	173 nM

— BindingDB's records for doi:10.1016/j.ab.2006.10.017 (Pfizer, 2007)
